Measurements: patent publication US12215093B2, “Bicyclic carboxamides and methods of use thereof” (Tempest Therapeutics, Inc., priority 2018, dated 2025)

Columns and labels:
EP4 = target: T1, EP4 (Homo sapiens, UniProt P35408); experiment: Functional calcium flux assay, EP4; assay type: cell-based; details: stably transfected HEK293 cells; PGE2 10 nM; read-out: EP4 Ca2+-flux assay IC50
T1 construct: host or cells: stably transfected HEK293 cells co-expressing a promiscuous G protein and a clytin variant

EP2 = EP2 (Homo sapiens, UniProt P43116);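 further: functional calcium flux assay in stably transfected HEK293 cells expressing EP2 coupled via a promiscuous G protein, clytin luminescence read as area under the curve, 30 min compound preincubation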
EP2, sequence (P43116 whole entry): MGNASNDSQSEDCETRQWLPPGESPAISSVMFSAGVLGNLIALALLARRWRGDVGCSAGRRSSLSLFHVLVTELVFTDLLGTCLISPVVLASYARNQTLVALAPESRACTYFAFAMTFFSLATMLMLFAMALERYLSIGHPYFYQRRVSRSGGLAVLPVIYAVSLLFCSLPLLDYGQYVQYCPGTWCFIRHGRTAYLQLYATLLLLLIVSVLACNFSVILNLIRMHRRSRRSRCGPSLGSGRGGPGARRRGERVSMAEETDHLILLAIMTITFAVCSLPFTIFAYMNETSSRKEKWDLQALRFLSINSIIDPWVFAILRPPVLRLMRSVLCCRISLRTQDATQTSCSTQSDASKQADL
Description: Each receptor subtype has an additional promiscuous G protein added in order to couple the aforementioned receptor to the calcium signaling pathway. The parental cell line used also expresses a novel variant of clytin, a calcium-activated photo-protein, to enable sensitive luminescent detection. Briefly, cells were plated at 50,000 cells-per-well in black, clear bottom 96-well plates. The plated cells were allowed to sit at room temperature for 30 min prior to transferring to a humidified, 37° C., 5% CO2 incubator for 18 to 24 h. Assay buffer (HBSS with 20 mM HEPES) and loading buffer (assay buffer plus 10 μM coelenterazine) were prepared on the day of the assay. Assays were performed by aspirating media from the assay plate and washing once with assay buffer, then replacing with loading buffer and allowing the cells to incubate for 1.5 h at room temperature. Compounds were prepared in assay buffer at a 3× final concentration in non-binding plates. Compounds were added to the cell plates and incubated for 30 min at room temperature. The prostanoid receptor ligand PGE2 was prepared at a 4× dilution ratio for a final concentration of 10 nM. Plates were run on a Flexstation™ using a 100 ms integration luminescence protocol for a total of 60 sec with ligand addition at 15 sec. Data were obtained from relative light units as measured by area under the curve.

T1 sequence (P35408 whole entry): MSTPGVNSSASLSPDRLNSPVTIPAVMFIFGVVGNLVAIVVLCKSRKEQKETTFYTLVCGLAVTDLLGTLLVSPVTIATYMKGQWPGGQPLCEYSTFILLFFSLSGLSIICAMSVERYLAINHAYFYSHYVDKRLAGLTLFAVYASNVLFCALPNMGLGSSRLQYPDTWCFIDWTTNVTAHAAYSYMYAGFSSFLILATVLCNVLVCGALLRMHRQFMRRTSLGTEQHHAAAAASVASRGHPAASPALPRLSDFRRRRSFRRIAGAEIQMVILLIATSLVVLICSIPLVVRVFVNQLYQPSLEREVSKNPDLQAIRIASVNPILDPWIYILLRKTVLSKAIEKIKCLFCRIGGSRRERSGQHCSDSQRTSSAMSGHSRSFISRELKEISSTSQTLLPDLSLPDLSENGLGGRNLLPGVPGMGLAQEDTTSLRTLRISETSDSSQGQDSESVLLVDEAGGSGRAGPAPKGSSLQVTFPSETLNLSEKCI

Row | SMILES | IC50 (EP4) [nM] | IC50 (EP2) [nM]
1 | CCOc1nccc(-c2ccc(Cn3ccc4c(F)ccc(C(=O)NC5CC6(C5)CC(C(=O)O)C6)c43)cc2)n1 (stereo not shown) [Example 58, (Sa)-6-(1-(4-(2-ethoxypyrimidin-4-yl)benzyl)-4-fluoro-1H-indole-7-carboxamido)spiro[3.3]heptane-2-carboxylic acid] | 2.4 | 95
2 | COc1cc(C#N)cc(-c2ccc(Cn3ccc4c(F)ccc(C(=O)NC5CC6(C5)CC(C(=O)O)C6)c43)cc2)n1 (stereo not shown) [Example 59, (Sa)-6-(1-(4-(4-cyano-6-methoxypyridin-2-yl)benzyl)-4-fluoro-1H-indole-7-carboxamido)spiro[3.3]heptane-2-carboxylic acid] | 2.5 | 51
3 | CNC(=O)c1ccc(-c2ccc(Cn3ccc4c(F)ccc(C(=O)NC5CC6(C5)CC(C(=O)O)C6)c43)cc2)cn1 (stereo not shown) [Example 63, (Sa)-6-(4-fluoro-1-(4-(6-(methylcarbamoyl)pyridin-3-yl)benzyl)-1H-indole-7-carboxamido)spiro[3.3]heptane-2-carboxylic acid] | < 1 | 90
4 | O=C(NC1CC2(C1)CC(C(=O)O)C2)c1ccc(F)c2ccn(Cc3ccc(-c4ccnc(C(F)F)c4)cc3)c12 (stereo not shown) [Example 64, (Sa)-6-(1-(4-(2-(difluoromethyl)pyridin-4-yl)benzyl)-4-fluoro-1H-indole-7-carboxamido)spiro[3.3]heptane-2-carboxylic acid] | < 1 | 48
5 | O=C(NC1CC2(C1)CC(C(=O)O)C2)c1ccc(Cl)c2ccn(Cc3ccc(-c4ccccc4)cc3)c12 (stereo not shown) [Example 68, (Sa)-6-(1-([1,1′-biphenyl]-4-ylmethyl)-4-chloro-1H-indole-7-carboxamido)spiro[3.3]heptane-2-carboxylic acid] | < 1 | < 25
6 | COc1cc(-c2ccc(Cn3ccc4c(Cl)ccc(C(=O)NC5CC6(C5)CC(C(=O)O)C6)c43)cc2)ccn1 (stereo not shown) [Example 69] | 2.2 | 33
7 | CCOc1cc(-c2ccc(Cn3ccc4c(Cl)ccc(C(=O)NC5CC6(C5)CC(C(=O)O)C6)c43)cc2)ccn1 (stereo not shown) [Example 70, (Sa)-6-(4-chloro-1-(4-(2-ethoxypyridin-4-yl)benzyl)-1H-indole-7-carboxamido)spiro[3.3]heptane-2-carboxylic acid] | < 1 | < 25
8 | O=C(NC1CC2(C1)CC(C(=O)O)C2)c1ccc(Cl)c2cnn(Cc3ccc(-n4cccn4)cc3)c12 (stereo not shown) [Example 73, (Sa)-6-(1-(4-(1H-pyrazol-1-yl)benzyl)-4-chloro-1H-indazole-7-carboxamido)spiro[3.3]heptane-2-carboxylic acid] | 1.3 | 71
9 | CCOc1cc(-c2ccc(Cn3ncc4c(Cl)ccc(C(=O)NC5CC6(C5)CC(C(=O)O)C6)c43)cc2)ccn1 (stereo not shown) [Example 79, (Sa)-6-(4-chloro-1-(4-(2-ethoxypyridin-4-yl)benzyl)-1H-indazole-7-carboxamido)spiro[3.3]heptane-2-carboxylic acid] | < 1 | < 25
10 | N#Cc1cccc(-c2ccc(Cn3ncc4c(Cl)ccc(C(=O)NC5CC6(C5)CC(C(=O)O)C6)c43)cc2)c1 (stereo not shown) [Example 80, (Sa)-6-(4-chloro-1-((3′-cyano-[1,1′-biphenyl]-4-yl)methyl)-1H-indazole-7-carboxamido)spiro[3.3]heptane-2-carboxylic acid] | 1.1 | 55
11 | O=C(NC1CC2(C1)CC(C(=O)O)C2)c1ccc(Cl)c2cnn(Cc3ccc(C4=CCCCC4)c(F)c3)c12 (stereo not shown) [Example 81, (Sa)-6-(4-chloro-1-((2-fluoro-2′3′4′5′-tetrahydro-[1,1’-biphenyl]-4-yl)methyl)-1H-indazole-7-carboxamido)spiro[3.3]heptane-2-carboxylic acid] | < 1 | < 25
12 | O=C(NC1CC2(C1)CC(C(=O)O)C2)c1ccc(Cl)c2cnn(Cc3ccc(C4=CCCC4)c(F)c3)c12 (stereo not shown) [Example 82, (Sa)-6-(4-chloro-1-(4-(cyclopent-1-en-1-yl)-3-fluorobenzyl)-1H-indazole-7-carboxamido)spiro[3.3]heptane-2-carboxylic acid] | < 1 | < 25

Now from value to compound:

Row | IC50 (EP4) [nM] | IC50 (EP2) [nM] | SMILES
13 | < 1 | < 25 | COc1ccc2cc(Cn3ccc4c(F)ccc(C(=O)NC5CC6(C5)CC(C(=O)O)C6)c43)ccc2c1 (stereo not shown) [Example 38, (Sa)-6-(4-fluoro-1-((6-methoxynaphthalen-2-yl)methyl)-1H-indole-7-carboxamido)spiro[3.3]heptane-2-carboxylic acid]
14 | < 1 | < 25 | COc1ccc2ccc(Cn3ccc4c(F)ccc(C(=O)NC5CC6(C5)CC(C(=O)O)C6)c43)cc2c1 (stereo not shown) [Example 40, (Sa)-6-(4-fluoro-1-((7-methoxynaphthalen-2-yl)methyl)-1H-indole-7-carboxamido)spiro[3.3]heptane-2-carboxylic acid]
15 | < 1 | 37 | O=C(NC1CC2(C1)CC(C(=O)O)C2)c1ccc(F)c2ccn(Cc3ccc4cc(Br)ccc4c3)c12 (stereo not shown) [Example 42, (Sa)-6-(1-((6-bromonaphthalen-2-yl)methyl)-4-fluoro-1H-indole-7-carboxamido)spiro[3.3]heptane-2-carboxylic acid]
16 | < 1 | < 25 | O=C(NC1CC2(C1)CC(C(=O)O)C2)c1ccc(F)c2ccn(Cc3ccc4c(Br)cccc4c3)c12 (stereo not shown) [Example 43]
17 | < 1 | 30 | O=C(NC1CC2(C1)CC(C(=O)O)C2)c1ccc(F)c2ccn(Cc3ccc4ccc(Br)cc4c3)c12 (stereo not shown) [Example 44, (Sa)-6-(1-((7-bromonaphthalen-2-yl)methyl)-4-fluoro-1H-indole-7-carboxamido)spiro[3.3]heptane-2-carboxylic acid]
18 | < 1 | 88 | COc1cc(-c2ccc(Cn3ccc4c(F)ccc(C(=O)NC5CC6(C5)CC(C(=O)O)C6)c43)cc2)ccc1F (stereo not shown) [Example 46, (Sa)-6-(4-fluoro-1-((4’-fluoro-3’-methoxy-[1,1′-biphenyl]-4-yl)methyl)-1H-indole-7-carboxamido)spiro[3.3]heptane-2-carboxylic acid]
19 | < 1 | 79 | COc1ccc(-c2ccc(Cn3ccc4c(F)ccc(C(=O)NC5CC6(C5)CC(C(=O)O)C6)c43)cc2)cc1F (stereo not shown) [Example 47, (Sa)-6-(4-fluoro-1-((3’-fluoro-4’-methoxy-[1,1′-biphenyl]-4-yl)methyl)-1H-indole-7-carboxamido)spiro[3.3]heptane-2-carboxylic acid]
20 | < 1 | 27 | CCOc1cc(-c2ccc(Cn3ccc4c(F)ccc(C(=O)NC5CC6(C5)CC(C(=O)O)C6)c43)cc2)ccn1 (stereo not shown) [Example 48, (Sa)-6-(1-(4-(2-ethoxypyridin-4-yl)benzyl)-4-fluoro-1H-indole-7-carboxamido)spiro[3.3]heptane-2-carboxylic acid]
21 | < 1 | < 25 | COc1cc(C#N)cc(-c2ccc(Cn3ccc4c(F)ccc(C(=O)NC5CC6(C5)CC(C(=O)O)C6)c43)cc2)c1 (stereo not shown) [Example 49, (Sa)-6-(1-((3’-cyano-5’-methoxy-[1,1′-biphenyl]-4-yl)methyl)-4-fluoro-1H-indole-7-carboxamido)spiro[3.3]heptane-2-carboxylic acid]
22 | < 1 | 67 | O=C(NC1CC2(C1)CC(C(=O)O)C2)c1ccc(F)c2ccn(Cc3ccc(-c4cccc(OC(F)F)c4)cc3)c12 (stereo not shown) [Example 50, (Sa)-6-(1-((3’-(difluoromethoxy)-[1,1′-biphenyl]-4-yl)methyl)-4-f1uoro-1H-indole-7-carboxamido)spiro[3.3]heptane-2-carboxylic acid]
23 | < 1 | < 25 | COc1ccc(-c2ccc(Cn3ccc4c(F)ccc(C(=O)NC5CC6(C5)CC(C(=O)O)C6)c43)cc2)cc1 (stereo not shown) [Example 51, (Sa)-6-(4-fluoro-1-((4’-methoxy-[1,1′-biphenyl]-4-yl)methyl)-1H-indole-7-carboxamido)spiro[3.3]heptane-2-carboxylic acid]
24 | < 1 | < 25 | COc1cc(F)cc(-c2ccc(Cn3ccc4c(F)ccc(C(=O)NC5CC6(C5)CC(C(=O)O)C6)c43)cc2)c1 (stereo not shown) [Example 53, (Sa)-6-(4-fluoro-1-((3’-fluoro-5’-methoxy-[1,1′-biphenyl]-4-yl)methyl)-1H-indole-7-carboxamido)spiro[3.3]heptane-2-carboxylic acid]
25 | < 1 | 46 | N#Cc1cccc(-c2ccc(Cn3ccc4c(F)ccc(C(=O)NC5CC6(C5)CC(C(=O)O)C6)c43)cc2)c1 (stereo not shown) [Example 55, (Sa)-6-(1-((3’-cyano-[1,1′-biphenyl]-4-yl)methyl)-4-fluoro-1H-indole-7-carboxamido)spiro[3.3]heptane-2-carboxylic acid]
26 | < 1 | 99 | O=C(NC1CC2(C1)CC(C(=O)O)C2)c1ccc(F)c2ccn(Cc3ccc(-c4cccc(OC5COC5)c4)cc3)c12 (stereo not shown) [Example 57, (Sa)-6-(4-fluoro-1-((3′-(oxetane-3-yloxy)-[1,1′-biphenyl]-4-yl)methyl)-1H-indole-7-carboxamido)spiro[3.3]heptane-2-carboxylic acid]
27 | < 1 | 40 | CNC(=O)c1cc(-c2ccc(Cn3ccc4c(F)ccc(C(=O)NC5CC6(C5)CC(C(=O)O)C6)c43)cc2)ccn1 (stereo not shown) [Example 60, (Sa)-6-(4-fluoro-1-(4-(2-(methylcarbamoyl)pyridin-4-yl)benzyl)-1H-indole-7-carboxamido)spiro[3.3]heptane-2-carboxylic acid]
28 | < 1 | < 25 | CCNC(=O)c1cc(-c2ccc(Cn3ccc4c(F)ccc(C(=O)NC5CC6(C5)CC(C(=O)O)C6)c43)cc2)ccn1 (stereo not shown) [Example 61, (Sa)-6-(1-(4-(2-(ethylcarbamoyl)pyridin-4-yl)benzyl)-4-fluoro-1H-indole-7-carboxamido)spiro[3.3]heptane-2-carboxylic acid]
29 | < 1 | 54 | CNC(=O)c1cccc(-c2ccc(Cn3ccc4c(F)ccc(C(=O)NC5CC6(C5)CC(C(=O)O)C6)c43)cc2)n1 (stereo not shown) [Example 62, (Sa)-6-(4-fluoro-1-(4-(6-(methylcarbamoyl)pyridin-2-yl)benzyl)-1H-indole-7-carboxamido)spiro[3.3]heptane-2-carboxylic acid]
